Assays:
Format in all cases: in vivo
Amaranthus = assay: Pre-emergence test/greenhouse; conditions: after three weeks
Procedure: (§1) Solvent: 5 parts by weight of acetone
(§2) Emulsifier: 1 part by weight of alkylaryl polyglycol ether
(§3) To produce a suitable preparation of active compound, 1 part by weight of active compound is mixed with the stated amount of solvent, the stated amount of emulsifier is added and the concentrate is diluted with water to the desired concentration.
(§4) Seeds of the test plants are sown in normal soil. After about 24 hours, the soil is sprayed with the preparation of active compound in such a way that the particular amounts of active compound desired are employed per unit area. The concentration of the spray liquor is chosen such that the particular amounts of active compound desired are applied in 1000 l of water/ha.
(§5) After three weeks, the degree of damage to the plants is assessed in % damage in comparison to the development of the untreated control.
(§6) 0%=no effect (as untreated control) 100%=total destruction

Ipomoea [1] = assay: Pre-emergence test/greenhouse; conditions: 250 g of ai./ha, after three weeks
Procedure: as §1, §2, §3, §4, §5, §6

Reapseed = assay: Pre-emergence test/greenhouse; conditions: after three weeks
Procedure: as §1, §2, §3, §4, §5, §6

Cassia [2] = assay: Post-emergence test/greenhouse; conditions: after three weeks
Procedure: as §1, §2, §3
as §4, with “Test plants which have a height” for “Seeds”, “5 to 15 cm” for “the test plants”, “are” for “are sown in normal soil. After about 24 hours, the soil is”, “applied” for “employed”
as §5
(§7) 0%=no effect (as untreated control)

Solanum [3] = assay: Post-emergence test/greenhouse; conditions: 60 g of ai./ha, after three weeks
Procedure: as §1, §2, §3
as §4, with “Test plants which have a height” for “Seeds”, “5 to 15 cm” for “the test plants”, “are” for “are sown in normal soil. After about 24 hours, the soil is”, “applied” for “employed”
as §5, §7

Veronica [4] = assay: Post-emergence test/greenhouse; conditions: after three weeks
Procedure: as §1, §2, §3
as §4, with “Test plants which have a height” for “Seeds”, “5 to 15 cm” for “the test plants”, “are” for “are sown in normal soil. After about 24 hours, the soil is”, “applied” for “employed”
as §5, §7

Wheat = assay: Post-emergence test/greenhouse; conditions: after three weeks
Procedure: as §1, §2, §3
as §4, with “Test plants which have a height” for “Seeds”, “5 to 15 cm” for “the test plants”, “are” for “are sown in normal soil. After about 24 hours, the soil is”, “applied” for “employed”
as §5, §7

weeds [5] = assay: Pre-emergence test; conditions: cf. Table A
Procedure: as §1, §2, §3, §4, §5, §6

weeds [6] = assay: Post-emergence test; conditions: cf. Table B
Procedure: as §1, §2, §3
as §4, with “Test plants which have a height” for “Seeds”, “5 to 15 cm” for “the test plants”, “are” for “are sown in normal soil. After about 24 hours, the soil is”, “applied” for “employed”
as §5, §7

Alopecurus = assay: Pre-emergence test/greenhouse; conditions: after three weeks
Procedure: as §1, §2, §3, §4, §5, §6

Avena fatua = assay: Pre-emergence test/greenhouse; conditions: after three weeks
Procedure: as §1, §2, §3, §4, §5, §6

Cassia [7] = assay: Pre-emergence test/greenhouse; conditions: 250 g of ai./ha, after three weeks
Procedure: as §1, §2, §3, §4, §5, §6

Setaria [8] = assay: Pre-emergence test/greenhouse; conditions: after three weeks
Procedure: as §1, §2, §3, §4, §5, §6

Viola = assay: Pre-emergence test/greenhouse; conditions: 250 g of ai./ha, after three weeks
Procedure: as §1, §2, §3, §4, §5, §6

Barley [9] = assay: Post-emergence test/greenhouse; conditions: 125 g of ai./ha, after three weeks
Procedure: as §1, §2, §3
as §4, with “Test plants which have a height” for “Seeds”, “5 to 15 cm” for “the test plants”, “are” for “are sown in normal soil. After about 24 hours, the soil is”, “applied” for “employed”
as §5, §7

Ipomoea [10] = assay: Post-emergence test/greenhouse; conditions: after three weeks
Procedure: as §1, §2, §3
as §4, with “Test plants which have a height” for “Seeds”, “5 to 15 cm” for “the test plants”, “are” for “are sown in normal soil. After about 24 hours, the soil is”, “applied” for “employed”
as §5, §7

Abutilon = assay: Pre-emergence test/greenhouse; conditions: after three weeks
Procedure: as §1, §2, §3, §4, §5, §6

Barley [11] = assay: Pre-emergence test/greenhouse; conditions: 250 g of ai./ha, after three weeks
Procedure: as §1, §2, §3, §4, §5, §6

Chenopodium = assay: Pre-emergence test/greenhouse; conditions: 125 g of ai./ha, after three weeks
Procedure: as §1, §2, §3, §4, §5, §6

Cotton = assay: Pre-emergence test/greenhouse; conditions: 250 g of ai./ha, after three weeks
Procedure: as §1, §2, §3, §4, §5, §6

Datura = assay: Pre-emergence test/greenhouse; conditions: 125 g of ai./ha, after three weeks
Procedure: as §1, §2, §3, §4, §5, §6

Galium = assay: Pre-emergence test/greenhouse; conditions: 1000 g of ai./ha, after three weeks
Procedure: as §1, §2, §3, §4, §5, §6

Lolium = assay: Pre-emergence test/greenhouse; conditions: 250 g of ai./ha, after three weeks
Procedure: as §1, §2, §3, §4, §5, §6

Matricaria [12] = assay: Pre-emergence test/greenhouse; conditions: 125 g of ai./ha, after three weeks
Procedure: as §1, §2, §3, §4, §5, §6

Solanum [13] = assay: Pre-emergence test/greenhouse; conditions: 125 g of ai./ha, after three weeks
Procedure: as §1, §2, §3, §4, §5, §6

Sorghum = assay: Pre-emergence test/greenhouse; conditions: 250 g of ai./ha, after three weeks
Procedure: as §1, §2, §3, §4, §5, §6

Veronica [14] = assay: Pre-emergence test/greenhouse; conditions: 250 g of ai./ha, after three weeks
Procedure: as §1, §2, §3, §4, §5, §6

Xanthium [15] = assay: Pre-emergence test/greenhouse; conditions: 1000 g of ai./ha, after three weeks
Procedure: as §1, §2, §3, §4, §5, §6

Echinochloa = assay: Post-emergence test/greenhouse; conditions: 125 g of ai./ha, after three weeks
Procedure: as §1, §2, §3
as §4, with “Test plants which have a height” for “Seeds”, “5 to 15 cm” for “the test plants”, “are” for “are sown in normal soil. After about 24 hours, the soil is”, “applied” for “employed”
as §5, §7

Matricaria [16] = assay: Post-emergence test/greenhouse; conditions: 125 g of ai./ha, after three weeks
Procedure: as §1, §2, §3
as §4, with “Test plants which have a height” for “Seeds”, “5 to 15 cm” for “the test plants”, “are” for “are sown in normal soil. After about 24 hours, the soil is”, “applied” for “employed”
as §5, §7

Polygonum = assay: Post-emergence test/greenhouse; conditions: 60 g of ai./ha, after three weeks
Procedure: as §1, §2, §3
as §4, with “Test plants which have a height” for “Seeds”, “5 to 15 cm” for “the test plants”, “are” for “are sown in normal soil. After about 24 hours, the soil is”, “applied” for “employed”
as §5, §7

Setaria [17] = assay: Post-emergence test/greenhouse; conditions: 125 g of ai./ha, after three weeks
Procedure: as §1, §2, §3
as §4, with “Test plants which have a height” for “Seeds”, “5 to 15 cm” for “the test plants”, “are” for “are sown in normal soil. After about 24 hours, the soil is”, “applied” for “employed”
as §5, §7

Xanthium [18] = assay: Post-emergence test/greenhouse; conditions: 125 g of ai./ha, after three weeks
Procedure: as §1, §2, §3
as §4, with “Test plants which have a height” for “Seeds”, “5 to 15 cm” for “the test plants”, “are” for “are sown in normal soil. After about 24 hours, the soil is”, “applied” for “employed”
as §5, §7

Structure (SMILES): CC(Cl)c1nc(N)nc(NC(C)c2ccccc2)n1 (racemic) [Example 18]
- degree of damage, Amaranthus (Amaranthus; 250 g of ai./ha): 100%
- degree of damage, Ipomoea (Ipomoea [1]): 95%
- degree of damage, Reapseed (Reapseed; 250 g of ai./ha): 0%
- degree of damage, Cassia (Cassia [2]; 60 g of ai./ha): 70%
- degree of damage, Solanum (Solanum [3]): 90%
- degree of damage, Veronica (Veronica [4]; 60 g of ai./ha): 95%
- degree of damage, Wheat (Wheat; 60 g of ai./ha): 0%
- action against weeds compared with known compound (A) (weeds [5]): considerably strong action against weeds than the known compound (A)
- activity against weeds compared with known compound (A) (weeds [6]): considerably stronger activity against weeds than the known compound (A)

Structure (SMILES): CC(Nc1nc(N)nc(C(C)(C)F)n1)c1ccccc1 (racemic) [Example 13]
- degree of damage, Alopecurus (Alopecurus; 250 g of ai./ha): 90%
- degree of damage, Avena fatua (Avena fatua; 250 g of ai./ha): 90%
- degree of damage, Cassia (Cassia [7]): 100%
- degree of damage, Ipomoea (Ipomoea [1]): 80%
- degree of damage, Setaria (Setaria [8]; 250 g of ai./ha): 80%
- degree of damage, Viola (Viola): 100%
- degree of damage, Barley (Barley [9]): 0%
- degree of damage, Cassia (Cassia [2]; 125 g of ai./ha): 95%
- degree of damage, Ipomoea (Ipomoea [10]; 125 g of ai./ha): 100%
- degree of damage, Veronica (Veronica [4]; 125 g of ai./ha): 100%
- degree of damage, Wheat (Wheat; 125 g of ai./ha): 0%
- action against weeds compared with known compound (A) (weeds [5]): considerably strong action against weeds than the known compound (A)
- activity against weeds compared with known compound (A) (weeds [6]): considerably stronger activity against weeds than the known compound (A)

Structure (SMILES): CC(Nc1nc(N)nc(C(F)(F)F)n1)c1ccccc1 (stereo not shown) [(A), 2-Amino-4-(1-phenyl-ethylamino)-6-trifluoromethyl-1,3,5-triazine, reference compound]
- degree of damage, Abutilon (Abutilon; 250 g of ai./ha): 0%
- degree of damage, Abutilon (Abutilon; 1000 g of ai./ha): 0%
- degree of damage, Alopecurus (Alopecurus; 250 g of ai./ha): 30%
- degree of damage, Alopecurus (Alopecurus; 1000 g of ai./ha): 30%
- degree of damage, Amaranthus (Amaranthus; 125 g of ai./ha): 40%
- degree of damage, Amaranthus (Amaranthus; 250 g of ai./ha): 80%
- degree of damage, Amaranthus (Amaranthus; 1000 g of ai./ha): 70%
- degree of damage, Avena fatua (Avena fatua; 250 g of ai./ha): 0%
- degree of damage, Avena fatua (Avena fatua; 1000 g of ai./ha): 0%
- degree of damage, Barley (Barley [11]): 0%
- degree of damage, Cassia (Cassia [7]): 20%
- degree of damage, Chenopodium (Chenopodium): 20%
- degree of damage, Cotton (Cotton): 0%
- degree of damage, Datura (Datura): 0%
- degree of damage, Galium (Galium): 60%
- degree of damage, Ipomoea (Ipomoea [1]): 20%
- degree of damage, Lolium (Lolium): 0%
- degree of damage, Matricaria (Matricaria [12]): 0%
- degree of damage, Reapseed (Reapseed; 125 g of ai./ha): 40%
- degree of damage, Reapseed (Reapseed; 250 g of ai./ha): 40%
- degree of damage, Setaria (Setaria [8]; 250 g of ai./ha): 0%
- degree of damage, Setaria (Setaria [8]; 1000 g of ai./ha): 20%
- degree of damage, Solanum (Solanum [13]): 0%
- degree of damage, Sorghum (Sorghum): 0%
- degree of damage, Veronica (Veronica [14]): 20%
- degree of damage, Viola (Viola): 0%
- degree of damage, Xanthium (Xanthium [15]): 70%
- degree of damage, Barley (Barley [9]): 5%
- degree of damage, Cassia (Cassia [2]; 60 g of ai./ha): 40%
- degree of damage, Cassia (Cassia [2]; 125 g of ai./ha): 80%
- degree of damage, Echinochloa (Echinochloa): 50%
- degree of damage, Ipomoea (Ipomoea [10]; 60 g of ai./ha): 80%
- degree of damage, Ipomoea (Ipomoea [10]; 125 g of ai./ha): 90%
- degree of damage, Matricaria (Matricaria [16]): 60%
- degree of damage, Polygonum (Polygonum): 80%
- degree of damage, Setaria (Setaria [17]): 50%
- degree of damage, Solanum (Solanum [3]): 40%
- degree of damage, Veronica (Veronica [4]; 60 g of ai./ha): 70%
- degree of damage, Veronica (Veronica [4]; 125 g of ai./ha): 90%
- degree of damage, Wheat (Wheat; 60 g of ai./ha): 0%
- degree of damage, Wheat (Wheat; 125 g of ai./ha): 0%
- degree of damage, Xanthium (Xanthium [18]): 60%

Source: patent publication US6399541B1, “Substituted 2,4-diamino-1,3,5-triazines as herbicides” (Bayer Aktiengesellschaft, priority 1997, dated 2002)
